Assay [1] deals with Epidermal growth factor receptor (Homo sapiens, UniProt P00533). The assay is described as follows: Inhibitory Activity for EGFR (WT) Kinase. The protocol:
A 50 ng/μL EGFR (WT, Carna) stock solution was diluted with a kinase buffer (50 mM HEPES, 10 mM MgCl2, 2 mM DTT, 1 mM EGTA, 0.01% Tween 20), and 6 μL of 1.67× working solution at 0.005 ng/μL (final concentration: 0.003 ng/μL) was added to each well. Different compounds dissolved in DMSO were added to the wells using a nanoliter pipettor, resulting in the final concentrations of the compounds of 100 nM to 0.0244 nM (4-fold gradient for 7 concentrations in total), and blank control wells (without enzyme) and negative control wells (with enzyme, plus vehicle DMSO) were set, 2 replicate wells for each concentration. After enzyme was reacted with the compound or vehicle for 30 min, 5×ATP at 25 μM (final concentration: 5 μM, Sigma) prepared with a kinase buffer was mixed with 5× substrate at 0.5 μM (final concentration: 0.1 μM, ULight-poly GT, PerkinElmer) at a ratio of 1:1 (v:v), and the mixture was added to each well at 4 μL/well. After being sealed with a film, the plate was incubated at room temperature for 2 h, and then 5 μL of 4×EDTA at 40 mM (final concentration: 10 mM) was added to each well. After the plate was incubated for 5 min at room temperature, 5 μL of 4× detection reagent at 8 nM (final concentration: 2 nM, Eu-anti-phospho-tyrosine antibody, PerkinElmer) was added to each well.

Assay [2] deals with Epidermal growth factor receptor (EGFR)(L858R)(T790M) (Homo sapiens, UniProt P00533, L858R/T790M). The assay can be described thus: Inhibitory Activity for EGFR (L858R/T790M) Kinase. The protocol:
(§1) A 50 ng/μL EGFR (L858R/T790M, Carna) stock solution was diluted with a kinase buffer (50 mM HEPES, 10 mM MgCl2, 2 mM DTT, 1 mM EGTA, 0.01% Tween 20), and 6 μL of 1.67× working solution at 0.004175 ng/μL (final concentration: 0.0025 ng/μL) was added to each well. Different compounds dissolved in DMSO were added to wells using a nanoliter pipettor, resulting in the final concentrations of the compounds of 10 nM to 0.0024 nM (4-fold gradient, 7 concentrations in total), and blank control wells (without enzyme) and negative control wells (with enzyme, plus vehicle DMSO) were set, 2 replicate wells for each concentration. After enzyme was reacted with the compound or vehicle for 30 min, 5×ATP at 25 μM (final concentration: 5 μM, Sigma) prepared with a kinase buffer was mixed with 5× substrate at 0.5 μM (final concentration: 0.1 μM, ULight-poly GT, PerkinElmer) at a ratio of 1:1 (v:v), and the mixture was added to each well at 4 μL/well. After being sealed with a film, the plate was incubated at room temperature for 2 h, and then 5 μL of 4×EDTA at 40 mM (final concentration: 10 mM) was added to each well. After the plate was incubated for 5 min at room temperature, 5 μL of 4× detection reagent at 8 nM (final concentration: 2 nM, Eu-anti-phospho-tyrosine antibody, PerkinElmer) was added to each well. After being incubated at room temperature for 1 h, the plate was read using a PerkinElmer Envision multi-mode microplate reader (excitation: 320 nm, emission: 665 nm), and IC50 was calculated by four-parameter fitting.

The target of assay [3] is Epidermal growth factor receptor [T790M,C797S,L858R] (UniProt P00533, C797S/L858R/T790M). The assay can be described thus: Inhibitory Activity for EGFR (L858R/T790M/C797S) Kinase. The protocol: as §1, with “(L858R/T790M/C797S, BPS)” for “(L858R/T790M, Carna)”, “0.00167” for “0.004175”, “0.001” for “0.0025”
Chain of Epidermal growth factor receptor [T790M,C797S,L858R] (P00533 25-1210 T790M/C797S/L858R limits assumed): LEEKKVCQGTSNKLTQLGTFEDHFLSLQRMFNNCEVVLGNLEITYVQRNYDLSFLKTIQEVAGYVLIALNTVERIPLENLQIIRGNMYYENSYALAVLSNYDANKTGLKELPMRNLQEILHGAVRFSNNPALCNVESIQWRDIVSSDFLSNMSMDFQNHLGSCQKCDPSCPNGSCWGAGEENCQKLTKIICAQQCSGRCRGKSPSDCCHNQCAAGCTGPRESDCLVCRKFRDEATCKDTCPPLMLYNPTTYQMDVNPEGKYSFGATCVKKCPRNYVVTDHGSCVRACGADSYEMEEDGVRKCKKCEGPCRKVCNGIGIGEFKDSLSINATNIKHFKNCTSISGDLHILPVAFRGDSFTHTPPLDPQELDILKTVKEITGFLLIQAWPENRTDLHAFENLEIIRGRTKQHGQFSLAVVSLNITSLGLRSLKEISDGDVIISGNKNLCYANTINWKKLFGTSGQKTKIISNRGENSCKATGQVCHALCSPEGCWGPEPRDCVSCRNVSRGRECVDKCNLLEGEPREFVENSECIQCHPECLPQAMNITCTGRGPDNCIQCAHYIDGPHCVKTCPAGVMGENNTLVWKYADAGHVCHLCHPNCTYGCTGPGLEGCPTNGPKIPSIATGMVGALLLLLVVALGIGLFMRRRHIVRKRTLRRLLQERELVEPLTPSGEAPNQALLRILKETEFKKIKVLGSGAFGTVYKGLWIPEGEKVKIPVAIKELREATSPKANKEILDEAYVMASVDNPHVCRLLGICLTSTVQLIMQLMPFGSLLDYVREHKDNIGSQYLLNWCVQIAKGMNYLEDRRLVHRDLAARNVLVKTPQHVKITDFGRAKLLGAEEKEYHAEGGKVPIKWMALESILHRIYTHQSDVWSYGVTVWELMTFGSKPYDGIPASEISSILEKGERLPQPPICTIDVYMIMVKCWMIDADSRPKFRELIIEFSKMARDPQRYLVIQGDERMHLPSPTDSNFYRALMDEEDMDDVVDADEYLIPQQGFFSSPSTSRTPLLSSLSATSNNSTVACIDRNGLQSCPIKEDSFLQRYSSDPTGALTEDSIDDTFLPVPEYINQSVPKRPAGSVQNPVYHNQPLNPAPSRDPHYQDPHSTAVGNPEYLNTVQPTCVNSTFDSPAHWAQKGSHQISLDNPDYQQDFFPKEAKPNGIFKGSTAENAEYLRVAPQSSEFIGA

Chain of Epidermal growth factor receptor (P00533 whole entry): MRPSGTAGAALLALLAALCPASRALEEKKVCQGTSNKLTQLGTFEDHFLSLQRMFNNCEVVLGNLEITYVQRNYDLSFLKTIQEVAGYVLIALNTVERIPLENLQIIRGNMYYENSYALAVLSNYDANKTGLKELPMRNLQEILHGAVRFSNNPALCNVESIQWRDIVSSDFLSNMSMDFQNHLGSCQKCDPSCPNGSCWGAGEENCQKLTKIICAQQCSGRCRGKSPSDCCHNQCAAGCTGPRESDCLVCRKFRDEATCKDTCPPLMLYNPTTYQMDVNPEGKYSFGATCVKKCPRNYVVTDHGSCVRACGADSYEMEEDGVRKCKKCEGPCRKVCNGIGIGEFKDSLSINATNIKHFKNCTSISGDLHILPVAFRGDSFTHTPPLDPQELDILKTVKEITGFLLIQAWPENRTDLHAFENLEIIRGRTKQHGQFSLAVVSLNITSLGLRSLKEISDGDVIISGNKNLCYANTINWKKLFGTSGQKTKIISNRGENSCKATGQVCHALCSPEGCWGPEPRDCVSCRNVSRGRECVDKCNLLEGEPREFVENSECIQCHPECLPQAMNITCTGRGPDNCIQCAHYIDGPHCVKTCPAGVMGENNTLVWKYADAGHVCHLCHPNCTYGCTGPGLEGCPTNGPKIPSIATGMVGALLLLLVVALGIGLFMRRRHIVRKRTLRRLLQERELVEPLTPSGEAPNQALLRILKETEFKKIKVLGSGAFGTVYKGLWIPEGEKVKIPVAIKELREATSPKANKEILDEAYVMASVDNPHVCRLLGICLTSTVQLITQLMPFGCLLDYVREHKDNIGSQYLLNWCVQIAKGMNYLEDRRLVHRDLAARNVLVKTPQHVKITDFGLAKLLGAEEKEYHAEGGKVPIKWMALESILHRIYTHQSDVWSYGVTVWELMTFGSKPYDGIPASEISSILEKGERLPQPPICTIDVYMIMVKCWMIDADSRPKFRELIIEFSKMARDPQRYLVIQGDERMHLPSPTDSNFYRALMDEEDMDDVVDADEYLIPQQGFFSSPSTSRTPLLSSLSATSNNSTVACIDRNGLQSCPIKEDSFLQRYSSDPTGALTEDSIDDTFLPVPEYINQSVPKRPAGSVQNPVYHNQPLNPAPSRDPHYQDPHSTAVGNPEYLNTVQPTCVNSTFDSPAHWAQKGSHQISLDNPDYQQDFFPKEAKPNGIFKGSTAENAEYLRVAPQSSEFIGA
Chain of Epidermal growth factor receptor (EGFR)(L858R)(T790M) (P00533 25-1210 T790M/L858R limits assumed): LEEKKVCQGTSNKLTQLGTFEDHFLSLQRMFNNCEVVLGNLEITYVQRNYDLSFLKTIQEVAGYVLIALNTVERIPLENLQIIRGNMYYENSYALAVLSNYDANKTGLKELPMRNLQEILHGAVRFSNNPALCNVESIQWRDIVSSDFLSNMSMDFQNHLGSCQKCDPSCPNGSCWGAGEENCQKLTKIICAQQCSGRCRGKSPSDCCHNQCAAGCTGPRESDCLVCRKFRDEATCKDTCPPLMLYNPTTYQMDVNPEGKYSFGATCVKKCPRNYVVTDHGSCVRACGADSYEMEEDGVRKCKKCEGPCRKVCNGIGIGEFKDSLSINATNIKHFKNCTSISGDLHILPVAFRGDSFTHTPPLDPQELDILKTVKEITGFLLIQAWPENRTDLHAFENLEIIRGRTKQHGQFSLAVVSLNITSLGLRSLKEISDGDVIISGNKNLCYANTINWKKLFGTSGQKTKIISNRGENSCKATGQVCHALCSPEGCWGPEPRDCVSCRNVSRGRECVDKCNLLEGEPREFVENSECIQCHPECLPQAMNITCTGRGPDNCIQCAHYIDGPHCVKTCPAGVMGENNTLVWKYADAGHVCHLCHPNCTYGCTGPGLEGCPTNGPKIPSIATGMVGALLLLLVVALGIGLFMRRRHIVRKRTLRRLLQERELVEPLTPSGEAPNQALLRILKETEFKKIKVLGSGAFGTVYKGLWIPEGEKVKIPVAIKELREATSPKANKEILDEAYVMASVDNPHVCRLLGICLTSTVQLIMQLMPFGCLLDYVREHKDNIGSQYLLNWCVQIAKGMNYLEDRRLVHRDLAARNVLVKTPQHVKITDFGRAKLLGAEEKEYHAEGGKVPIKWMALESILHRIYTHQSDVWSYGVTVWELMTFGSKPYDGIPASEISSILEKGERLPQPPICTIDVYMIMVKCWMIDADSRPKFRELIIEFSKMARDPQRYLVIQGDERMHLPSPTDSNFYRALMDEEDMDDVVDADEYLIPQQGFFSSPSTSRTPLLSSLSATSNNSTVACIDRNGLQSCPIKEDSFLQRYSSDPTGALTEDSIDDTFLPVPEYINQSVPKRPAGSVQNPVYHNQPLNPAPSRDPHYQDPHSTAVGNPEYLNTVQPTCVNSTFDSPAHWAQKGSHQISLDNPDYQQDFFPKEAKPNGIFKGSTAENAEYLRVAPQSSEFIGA

Consider `Cc1cc2cc(n1)-c1cnn(C)c1OCCC[C@@H](C1CC1)CN1/C(=N/C2=O)Nc2ccc(NC3CCN(C)CC3)cc21` [US20250034165, Example 20], for which the half-inhibitory concentration (IC50) (in general, the concentration that gives 50% inhibition) in assay [1] is 0.2 nM; in assay [2] it was 0.016 nM. Regarding `Cc1cc2cc(n1)-c1cnn(C)c1OCCC[C@@H](C1CC1)CN1/C(=N/C2=O)Nc2cc(NCCCN)ccc21` [US20250034165, Example 50], the 50% inhibitory concentration (IC50) was 1.3 nM in assay [1] and 0.066 nM in assay [3]. For `Cc1cc2cc(n1)-c1cnn(C3CC3)c1OCCC[C@@H](C)CN1/C(=N/C2=O)Nc2ccc(N3CC[C@H](O)C3)cc21` [US20250034165, Example 16], in that order: 3.4 nM and 0.12 nM.

On to `Cc1cc2cc(n1)-c1cnn(C)c1OCCC[C@@H](C1CC1)CN1/C(=N/C2=O)Nc2cc(NC3CN(C)C3)ccc21` [US20250034165, Example 33], for which the IC50 in assay [1] was determined as 0.47 nM; in assay [3] it was 0.012 nM. The like results for `Cc1cc2cc(n1)-c1cnn(C)c1OCCC[C@@H](C1CC1)CN1/C(=N/C2=O)Nc2cc(NC3(C)CNC3)ccc21` [US20250034165, Example 34] were, in that order, 0.4 nM and 0.028 nM. For `Cc1cc2cc(n1)-c1cnn(C)c1OCCC[C@@H](C1CC1)CN1/C(=N/C2=O)Nc2cc(N[C@@H]3CCOC3)ccc21` [US20250034165, Example 43], in that order: 1.2 nM and 0.039 nM. As for `Cc1cc2cc(n1)-c1cnn(C3CC3)c1OCCC[C@@H](C)CN1/C(=N/C2=O)Nc2cc(NC[C@H]3COCCO3)ccc21` [US20250034165, Example 14], the 50% inhibitory concentration (IC50) is 4 nM in assay [1] and 0.11 nM in assay [2]. For `Cc1cc2cc(n1)-c1cnn(C)c1OCCC[C@@H](C1CC1)CN1/C(=N/C2=O)Nc2cc(NCCCCN(C)C)ccc21` [US20250034165, Example 51], in that order: 1.8 nM and 0.017 nM.

As to `Cc1cc2cc(n1)-c1cnn(C)c1OCCC[C@@H](C1CC1)CN1/C(=N/C2=O)Nc2cc(NCCN3CCOCC3)ccc21` [US20250034165, Example 3], the 50% inhibitory concentration (IC50) stood at 0.864 nM in assay [1] and 0.022 nM in assay [3].

`Cc1cc2cc(n1)-c1cnn(C)c1OCCC[C@@H](C1CC1)CN1/C(=N/C2=O)Nc2ccc(NCCN(C)C)cc21` [US20250034165, Example 28] registered a half-maximal inhibitory concentration (IC50) in assay [1] of 0.45 nM. On to `Cc1cc2cc(n1)-c1cnn(C)c1OCCC[C@@H](C1CC1)CN1/C(=N/C2=O)Nc2cc(N[C@H]3CC[C@H](O)CC3)ccc21` [US20250034165, Example 151], for which the concentration for half-maximal inhibition (IC50) worked out at 0.23 nM in assay [2] and 0.25 nM in assay [3]. For `Cc1cc2cc(n1)-c1cnn(C)c1OCCC[C@@H](C1CC1)CN1/C(=N/C2=O)Nc2ccc(N[C@H](C)CN3CCCCC3)cc21` [US20250034165, Example 141], in that order: 0.084 nM and 0.24 nM. For `Cc1cc2cc(n1)-c1cnn(C)c1OCCC[C@@H](C1CC1)CN1/C(=N/C2=O)Nc2ccc(N[C@@H](C)CN3CCCCC3)cc21` [US20250034165, Example 142], in that order: 0.14 nM and 0.35 nM.

Consider `Cc1cc2cc(n1)-c1cnn(C)c1OCCC[C@@H](C1CC1)CN1/C(=N/C2=O)Nc2cc(N[C@@H]3CCCOC3)ccc21` [US20250034165, Example 18], for which the IC50 in assay [1] amounted to 1.7 nM; in assay [3], 0.051 nM.

Take `Cc1cc2cc(n1)-c1cnn(C)c1OCCC[C@@H](C1CC1)CN1/C(=N/C2=O)Nc2cc(NC[C@H]3COCCO3)ccc21` [US20250034165, Example 19]: the IC50 is 1.8 nM in assay [1] and 0.035 nM in assay [3]. As to `Cc1cc2cc(n1)-c1cnn(C)c1OCCC[C@@H](C1CC1)CN1/C(=N/C2=O)Nc2ccc(NC(=O)CCCN(C)C)cc21` [US20250034165, Example 113], the IC50 in assay [2] worked out at 0.15 nM; in assay [3], 0.12 nM. For `Cc1cc2cc(n1)-c1cnn(C)c1OCCC[C@@H](C1CC1)CN1/C(=N/C2=O)Nc2cc(N[C@H](C)CN(C)C)ccc21` [US20250034165, Example 67], the IC50 in assay [2] stood at 0.14 nM; in assay [3], 0.49 nM.

On to `Cc1cc2cc(n1)-c1cnn(C)c1OCCC[C@@H](C1CC1)CN1/C(=N/C2=O)Nc2ccc(N[C@H]3C[C@H](N(C)C)C3)cc21` [US20250034165, Example 128], for which the half-inhibitory concentration (IC50) in assay [2] was determined as 0.63 nM; in assay [3], 0.46 nM. As for `Cc1cc2cc(n1)-c1cnn(C)c1OCCC[C@@H](C1CC1)CN1/C(=N/C2=O)Nc2cc(N[C@@H](C)CN3CCCCC3)ccc21` [US20250034165, Example 138], the values for the half-inhibitory concentration (IC50) in assay [2] and in assay [3] were 0.13 nM and 0.35 nM, respectively. `Cc1cc2cc(n1)-c1cnn(C)c1OCCC[C@@H](C1CC1)CN1/C(=N/C2=O)Nc2ccc(N[C@H]3CC[C@H](N(C)C)C3)cc21` [US20250034165, Example 136]: the 50% inhibitory concentration (IC50) in assay [2] was found to be 0.71 nM; in assay [3], 0.34 nM. Regarding `Cc1cc2cc(n1)-c1cnn(C)c1OCCC[C@@H](C1CC1)CN1/C(=N/C2=O)Nc2ccc(N[C@@H]3CC[C@H](N(C)C)C3)cc21` [US20250034165, Example 134], the IC50 worked out at 0.55 nM in assay [2] and 0.48 nM in assay [3]. The like results for `Cc1cc2cc(n1)-c1cnn(C)c1OCCC[C@@H](C1CC1)CN1/C(=N/C2=O)Nc2ccc(N[C@@H]3CC[C@@H](N(C)C)C3)cc21` [US20250034165, Example 130] were, in that order, 0.3 nM and 0.36 nM. For `Cc1cc2cc(n1)-c1cnn(C)c1OCCC[C@@H](C1CC1)CN1/C(=N/C2=O)Nc2cc(N[C@@H]3CC[C@@H](N(C)C)C3)ccc21` [US20250034165, Example 129], in that order: 0.3 nM and 0.39 nM. As to `Cc1cc2cc(n1)-c1cnn(C)c1OCCC[C@@H](C1CC1)CN1/C(=N/C2=O)Nc2ccc(NCCN3CCCC3)cc21` [US20250034165, Example 82], the half-inhibitory concentration (IC50) was 0.58 nM in assay [1] and 0.014 nM in assay [3]. For the compound `Cc1cc2cc(n1)-c1cnn(C)c1OCCC[C@@H](C1CC1)CN1/C(=N/C2=O)Nc2ccc(N(C)C3CCN(C)CC3)cc21` [US20250034165, Example 117], the values for the IC50 in assay [2] and in assay [3] were 0.77 nM and 0.45 nM, respectively. Turning to `Cc1cc2cc(n1)-c1cnn(C)c1OCCC[C@@H](C1CC1)CN1/C(=N/C2=O)Nc2ccc(N3CC[C@H](O)C3)cc21` [US20250034165, Example 21], the concentration for half-maximal inhibition (IC50) in assay [1] worked out at 2.4 nM; in assay [3], 0.075 nM. In the case of `Cc1cc2cc(n1)-c1cnn(C)c1OCCC[C@@H](C1CC1)CN1/C(=N/C2=O)Nc2ccc(NC3CC(N(C)C)C3)cc21` (stereo not given in full) [US20250034165, Example 98], the half-maximal inhibitory concentration (IC50) is 0.26 nM in assay [2] and 0.28 nM in assay [3].

For the compound `Cc1cc2cc(n1)-c1cnn(C)c1OCCC[C@@H](C1CC1)CN1/C(=N/C2=O)Nc2cc(N[C@H](C)CCN3CCCCC3)ccc21` [US20250034165, Example 139], the IC50 in assay [2] turned out to be 0.087 nM; in assay [3], 0.21 nM.

The values above are taken from BindingDB's records for patent US20250034165 (Chia Tai Tianqing Pharmaceutical Group, 2025).
